# Laboratory results: PubChem BioAssay (NCI)
#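 Tested at 5 concentrations; 48 h exposure; 96-well plates; endpoints linearly interpolated, else capped at highest concentration. Here, GI50 denotes the concentration required for 50% inhibition of growth. At the TGI there is no net growth.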 Where a SMILES comes first, the peptide text is derived from it.
# Columns and labels:
# Test in all cases: inhibition of tumour cell growth, NCI panel, 48 h
# SNB-75 CNS = tested on: SNB-75 CNS
# UACC-62 melanoma = tested on: UACC-62 melanoma
# HCC-2998 colon = tested on: HCC-2998 colon
# NCI/ADR-RES ovarian = tested on: NCI/ADR-RES ovarian
# A549 NSCLC = tested on: A549 NSCLC
# PC-3 prostate = tested on: PC-3 prostate
# ACHN renal = tested on: ACHN renal
# SF-295 CNS = tested on: SF-295 CNS
# RXF 393 renal = tested on: RXF 393 renal
# SK-MEL-5 melanoma = tested on: SK-MEL-5 melanoma
# MDA-MB-435 = tested on: MDA-MB-435
# NCI-H522 lung = tested on: NCI-H522 lung
# OVCAR-4 ovarian = tested on: OVCAR-4 ovarian
# MALME-3M melanoma = tested on: MALME-3M melanoma
# T-47D breast = tested on: T-47D breast
# NCI-H226 lung = tested on: NCI-H226 lung
# MOLT-4 leukemia = tested on: MOLT-4 leukemia
# MDA-MB-231 breast = tested on: MDA-MB-231 breast
# CAKI-1 renal = tested on: CAKI-1 renal
# HS 578T breast = tested on: HS 578T breast
# HCT-15 colon = tested on: HCT-15 colon
# SF-539 CNS = tested on: SF-539 CNS
# UACC-257 melanoma = tested on: UACC-257 melanoma
# SK-OV-3 ovarian = tested on: SK-OV-3 ovarian
# HCT-116 colon = tested on: HCT-116 colon
# HOP-62 NSCLC = tested on: HOP-62 NSCLC
# HT29 colon = tested on: HT29 colon
# K-562 leukemia = tested on: K-562 leukemia
# OVCAR-3 ovarian = tested on: OVCAR-3 ovarian
# SW-620 colon = tested on: SW-620 colon
# LOX IMVI melanoma = tested on: LOX IMVI melanoma
# SF-268 CNS = tested on: SF-268 CNS
# 786-0 renal = tested on: 786-0 renal
# SN12C renal = tested on: SN12C renal
# M14 melanoma = tested on: M14 melanoma
# CCRF-CEM leukemia = tested on: CCRF-CEM leukemia
# SK-MEL-2 melanoma = tested on: SK-MEL-2 melanoma
# DU-145 prostate = tested on: DU-145 prostate
# A498 renal = tested on: A498 renal
# SNB-19 CNS = tested on: SNB-19 CNS
# SR leukemia = tested on: SR leukemia
# IGROV1 ovarian = tested on: IGROV1 ovarian
# HOP-92 NSCLC = tested on: HOP-92 NSCLC
# UO-31 renal = tested on: UO-31 renal
# HL-60(TB) leukemia = tested on: HL-60(TB) leukemia
# NCI-H460 lung = tested on: NCI-H460 lung
# U251 CNS = tested on: U251 CNS
# COLO 205 colon = tested on: COLO 205 colon
# OVCAR-5 ovarian = tested on: OVCAR-5 ovarian
# MCF7 breast = tested on: MCF7 breast
# SK-MEL-28 melanoma = tested on: SK-MEL-28 melanoma
# NCI-H23 lung = tested on: NCI-H23 lung
# RPMI-8226 leukemia = tested on: RPMI-8226 leukemia
# EKVX NSCLC = tested on: EKVX NSCLC
# TK-10 renal = tested on: TK-10 renal
# KM12 colon = tested on: KM12 colon
# OVCAR-8 ovarian = tested on: OVCAR-8 ovarian
# BT-549 breast = tested on: BT-549 breast
smiles,measurement,setting,value
CC(=O)NC(C(=O)N1CCCC1C(=O)O)C(C)C (stereo not drawn) (Ac-Val-Pro-OH; configuration not given here),GI50,SNB-75 CNS,0.032 µg/mL
same,TGI,SNB-75 CNS,66.7 µg/mL
same,GI50,UACC-62 melanoma,22.4 µg/mL
same,TGI,UACC-62 melanoma,72.4 µg/mL
N=c1c2c(=O)n3c(nc2nc2sc4ccc(Cl)cc4n12)-c1ccccc1Sc1ccccc1-3,GI50,HCC-2998 colon,3.12 µM
same,TGI,HCC-2998 colon,12.8 µM
same,GI50,NCI/ADR-RES ovarian,2.05 µM
same,TGI,NCI/ADR-RES ovarian,7.5 µM
same,GI50,A549 NSCLC,1.98 µM
same,TGI,A549 NSCLC,12.5 µM
same,GI50,PC-3 prostate,2.6 µM
same,TGI,PC-3 prostate,> 100 µM
same,GI50,ACHN renal,2.61 µM
same,TGI,ACHN renal,16.9 µM
same,GI50,SF-295 CNS,1.41 µM
same,TGI,SF-295 CNS,5.79 µM
same,GI50,RXF 393 renal,3.23 µM
same,TGI,RXF 393 renal,16.2 µM
same,GI50,SNB-75 CNS,2.45 µM
same,TGI,SNB-75 CNS,9.66 µM
same,GI50,SK-MEL-5 melanoma,1.42 µM
same,TGI,SK-MEL-5 melanoma,3.86 µM
same,GI50,MDA-MB-435,2.67 µM
same,TGI,MDA-MB-435,13.1 µM
same,GI50,NCI-H522 lung,1.76 µM
same,TGI,NCI-H522 lung,11.4 µM
same,GI50,OVCAR-4 ovarian,3.5 µM
same,TGI,OVCAR-4 ovarian,19.6 µM
same,GI50,MALME-3M melanoma,2.15 µM
same,TGI,MALME-3M melanoma,9.21 µM
same,GI50,T-47D breast,2.54 µM
same,TGI,T-47D breast,7.23 µM
same,GI50,NCI-H226 lung,2.92 µM
same,TGI,NCI-H226 lung,21.5 µM
same,GI50,MOLT-4 leukemia,1.77 µM
same,TGI,MOLT-4 leukemia,9.64 µM
same,GI50,MDA-MB-231 breast,2.56 µM
same,TGI,MDA-MB-231 breast,16.2 µM
same,GI50,CAKI-1 renal,2.36 µM
same,TGI,CAKI-1 renal,12.9 µM
same,GI50,HS 578T breast,2.2 µM
same,TGI,HS 578T breast,10.1 µM
same,GI50,HCT-15 colon,2.96 µM
same,TGI,HCT-15 colon,14.5 µM
same,GI50,SF-539 CNS,3.34 µM
same,TGI,SF-539 CNS,18.4 µM
same,GI50,UACC-257 melanoma,3.14 µM
same,TGI,UACC-257 melanoma,9.39 µM
same,GI50,SK-OV-3 ovarian,3.7 µM
same,TGI,SK-OV-3 ovarian,25.2 µM
same,GI50,HCT-116 colon,2.34 µM
same,TGI,HCT-116 colon,10.3 µM
same,GI50,HOP-62 NSCLC,3.64 µM
same,TGI,HOP-62 NSCLC,28.3 µM
same,GI50,HT29 colon,3.8 µM
same,TGI,HT29 colon,18 µM
same,GI50,K-562 leukemia,1.61 µM
same,TGI,K-562 leukemia,> 100 µM
same,GI50,OVCAR-3 ovarian,1.89 µM
same,TGI,OVCAR-3 ovarian,8.27 µM
same,GI50,SW-620 colon,3.05 µM
same,TGI,SW-620 colon,16.1 µM
same,GI50,LOX IMVI melanoma,2.69 µM
same,TGI,LOX IMVI melanoma,20.2 µM
same,GI50,SF-268 CNS,3.52 µM
same,TGI,SF-268 CNS,18.3 µM
same,GI50,786-0 renal,2.55 µM
same,TGI,786-0 renal,6.84 µM
same,GI50,SN12C renal,2.94 µM
same,TGI,SN12C renal,14 µM
same,GI50,M14 melanoma,2.99 µM
same,TGI,M14 melanoma,10.6 µM
same,GI50,CCRF-CEM leukemia,2.32 µM
same,TGI,CCRF-CEM leukemia,> 100 µM
same,GI50,SK-MEL-2 melanoma,2.07 µM
same,TGI,SK-MEL-2 melanoma,5.99 µM
same,GI50,DU-145 prostate,4.31 µM
same,TGI,DU-145 prostate,19.7 µM
same,GI50,A498 renal,0.371 µM
same,TGI,A498 renal,3.6 µM
same,GI50,SNB-19 CNS,4.31 µM
same,TGI,SNB-19 CNS,20.4 µM
same,GI50,SR leukemia,2.15 µM
same,TGI,SR leukemia,9.14 µM
same,GI50,IGROV1 ovarian,3.81 µM
same,TGI,IGROV1 ovarian,18.3 µM
same,GI50,HOP-92 NSCLC,0.762 µM
same,TGI,HOP-92 NSCLC,6.08 µM
same,GI50,UO-31 renal,2.29 µM
same,TGI,UO-31 renal,9.97 µM
same,GI50,HL-60(TB) leukemia,2.21 µM
same,TGI,HL-60(TB) leukemia,6.63 µM
same,GI50,NCI-H460 lung,2.07 µM
same,TGI,NCI-H460 lung,6.98 µM
same,GI50,U251 CNS,2.8 µM
same,TGI,U251 CNS,12.6 µM
same,GI50,COLO 205 colon,2.24 µM
same,TGI,COLO 205 colon,5.24 µM
same,GI50,OVCAR-5 ovarian,4.62 µM
same,TGI,OVCAR-5 ovarian,24 µM
same,GI50,MCF7 breast,3.06 µM
same,TGI,MCF7 breast,21.8 µM
same,GI50,SK-MEL-28 melanoma,3.91 µM
same,TGI,SK-MEL-28 melanoma,16.4 µM
same,GI50,NCI-H23 lung,1.9 µM
same,TGI,NCI-H23 lung,7.49 µM
same,GI50,UACC-62 melanoma,1.28 µM
same,TGI,UACC-62 melanoma,3.27 µM
same,GI50,RPMI-8226 leukemia,1.44 µM
same,TGI,RPMI-8226 leukemia,> 100 µM
same,GI50,EKVX NSCLC,1.42 µM
same,TGI,EKVX NSCLC,8.97 µM
same,GI50,TK-10 renal,4.3 µM
same,TGI,TK-10 renal,47.1 µM
same,GI50,KM12 colon,2.9 µM
same,TGI,KM12 colon,12.4 µM
same,GI50,OVCAR-8 ovarian,2.95 µM
same,TGI,OVCAR-8 ovarian,11.8 µM
O=C(NC1CCN(Cc2ccccc2)CC1)c1ccccc1I,TGI,NCI/ADR-RES ovarian,92.3 µM
same,TGI,A549 NSCLC,> 100 µM
same,TGI,PC-3 prostate,98.8 µM
same,TGI,ACHN renal,> 100 µM
same,TGI,SF-295 CNS,36.9 µM
same,TGI,RXF 393 renal,> 100 µM
same,TGI,SK-MEL-5 melanoma,31 µM
same,TGI,MDA-MB-435,32.4 µM
same,TGI,NCI-H522 lung,27.6 µM
same,TGI,OVCAR-4 ovarian,> 100 µM
same,TGI,MALME-3M melanoma,31.6 µM
same,TGI,T-47D breast,66.1 µM
same,TGI,NCI-H226 lung,72.8 µM
same,TGI,MOLT-4 leukemia,55.1 µM
same,TGI,MDA-MB-231 breast,41.1 µM
same,TGI,CAKI-1 renal,> 100 µM
same,TGI,HS 578T breast,50.2 µM
same,TGI,HCT-15 colon,36.7 µM
same,TGI,SF-539 CNS,63.1 µM
same,TGI,UACC-257 melanoma,38 µM
same,TGI,SK-OV-3 ovarian,43.6 µM
same,TGI,HCT-116 colon,31.1 µM
same,TGI,HOP-62 NSCLC,37.9 µM
same,TGI,HT29 colon,34.8 µM
same,TGI,K-562 leukemia,> 100 µM
same,TGI,OVCAR-3 ovarian,> 100 µM
same,TGI,SW-620 colon,38.9 µM
same,TGI,LOX IMVI melanoma,32.6 µM
same,TGI,SF-268 CNS,> 100 µM
same,TGI,786-0 renal,63.4 µM
same,TGI,BT-549 breast,> 100 µM
same,TGI,SN12C renal,> 100 µM
same,TGI,M14 melanoma,33.4 µM
same,TGI,CCRF-CEM leukemia,86.2 µM
same,TGI,SK-MEL-2 melanoma,48.7 µM
same,TGI,DU-145 prostate,> 100 µM
same,TGI,A498 renal,> 100 µM
same,TGI,SNB-19 CNS,> 100 µM
same,TGI,SR leukemia,> 100 µM
same,TGI,IGROV1 ovarian,> 100 µM
same,TGI,HOP-92 NSCLC,92.4 µM
same,TGI,UO-31 renal,30.1 µM
same,TGI,HL-60(TB) leukemia,> 100 µM
same,TGI,NCI-H460 lung,67.7 µM
same,TGI,U251 CNS,63.3 µM
same,TGI,COLO 205 colon,34.8 µM
same,TGI,OVCAR-5 ovarian,58 µM
same,TGI,SK-MEL-28 melanoma,36.5 µM
same,TGI,NCI-H23 lung,72.1 µM
same,TGI,UACC-62 melanoma,34.9 µM
same,TGI,RPMI-8226 leukemia,> 100 µM
same,TGI,EKVX NSCLC,> 100 µM
same,TGI,TK-10 renal,63.6 µM
same,TGI,KM12 colon,34.6 µM
same,TGI,OVCAR-8 ovarian,> 100 µM
